We go through 8 compounds from PMC10763615, “Identification and engineering of potent cyclic peptides with selective or promiscuous binding through biochemical profiling and bioinformatic data analysis” (RSC Chemical Biology, 2023).

Like-named read-outs stand apart in the source and are kept apart here. Positions of bridges follow the written chain, without caps; N, C: chain ends. Residues, ends and D or L forms follow the SMILES beside them.

What all share (type): binding
In experiment [1] the target is T1, FGF-R4 ECD (Homo sapiens, UniProt P22455).
T1 construct: DNA constructs for the extracellular domain (ECD) of human FGF-; HPC4 (C); made in house; host or cells: HEK 293-6E
T1 sequence (P22455 22-369 limits assumed): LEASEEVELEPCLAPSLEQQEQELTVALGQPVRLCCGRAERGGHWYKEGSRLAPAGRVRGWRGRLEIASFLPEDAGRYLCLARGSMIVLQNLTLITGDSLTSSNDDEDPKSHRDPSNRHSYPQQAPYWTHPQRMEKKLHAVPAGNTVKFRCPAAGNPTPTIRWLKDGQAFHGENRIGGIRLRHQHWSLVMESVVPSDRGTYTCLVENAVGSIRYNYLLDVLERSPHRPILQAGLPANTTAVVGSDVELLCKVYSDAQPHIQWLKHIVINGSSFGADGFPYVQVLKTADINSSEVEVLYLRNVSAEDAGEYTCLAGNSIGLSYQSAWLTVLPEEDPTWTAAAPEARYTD
Description: single concentration BLI of crude peptides. The following applies: read-out: KD (4). The procedure, abridged: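 Biotinylated FGF-R ECD on streptavidin biosensors was dipped into ~1 μM crude peptide in PBS pH7.4 with 0.05% Tween-20 and 0.01% BSA for association, then into buffer for dissociation, and followed by BLI. Fitted KD values were adjusted for peptide concentration measured by UPLC-CAD.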

Experiment [2] addresses T2, FGF-R3C ECD (Homo sapiens, UniProt P22607).
T2 sequence (P22607 23-375 limits assumed): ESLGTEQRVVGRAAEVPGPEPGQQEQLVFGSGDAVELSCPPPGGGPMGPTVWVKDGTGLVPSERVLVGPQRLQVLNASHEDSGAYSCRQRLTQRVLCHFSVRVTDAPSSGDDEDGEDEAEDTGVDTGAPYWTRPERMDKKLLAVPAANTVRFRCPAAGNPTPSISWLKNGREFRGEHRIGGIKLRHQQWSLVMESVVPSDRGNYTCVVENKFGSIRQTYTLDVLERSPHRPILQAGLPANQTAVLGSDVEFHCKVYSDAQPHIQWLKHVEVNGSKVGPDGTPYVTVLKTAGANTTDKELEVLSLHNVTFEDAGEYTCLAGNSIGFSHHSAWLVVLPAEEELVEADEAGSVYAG
Description: biochemical. On the set-up: DNA constructs for the extracellular domain (ECD) of human FGF-; HPC4 (C); made in house; host or cells: HEK 293-6E. The procedure, abridged:
(§1)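 Biolayer interferometry with biotinylated FGF-R ECD on streptavidin biosensors in PBS pH 7.4, 0.05% Tween-20, 0.01% BSA. Multi-concentration: purified peptide dilution series fitted to a multi-point KD model.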

For experiment [3], the target named is T3, FGF-R1C ECD (Homo sapiens, UniProt P11362).
T3 sequence (P11362 22-376 limits assumed): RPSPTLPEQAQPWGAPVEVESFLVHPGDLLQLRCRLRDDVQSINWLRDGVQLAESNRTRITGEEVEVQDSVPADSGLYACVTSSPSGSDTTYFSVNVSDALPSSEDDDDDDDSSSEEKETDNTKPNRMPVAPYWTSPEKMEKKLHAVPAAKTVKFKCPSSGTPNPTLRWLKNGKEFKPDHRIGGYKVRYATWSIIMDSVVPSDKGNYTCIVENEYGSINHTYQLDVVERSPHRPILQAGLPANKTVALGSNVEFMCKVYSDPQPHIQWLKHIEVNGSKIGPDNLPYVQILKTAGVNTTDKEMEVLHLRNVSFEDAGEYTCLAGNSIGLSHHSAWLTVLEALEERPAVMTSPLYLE
Description: biochemical. On the set-up: DNA constructs for the extracellular domain (ECD) of human FGF-; HPC4 (C); made in house; host or cells: HEK 293-6E. The procedure, abridged:
as §1

The mark [4] stands for this setting: crude NNK peptides, single concentration BLI (Table S3).
Where [5] appears, read: crude T18 selection 1 (1:1:1) peptides, single concentration BLI (Table S4).

By Kd is commonly meant a measure of binding affinity in units of concentration. As for `CC[C@H](C)[C@@H]1NC(=O)[C@H](CCCCN)NC(=O)[C@H](Cc2ccc(O)cc2)NC(=O)[C@H](CC(C)C)NC(=O)[C@H](CC(C)C)NC(=O)[C@H](C)NC(=O)[C@H](Cc2ccccc2)NC(=O)[C@@H](NC(=O)[C@H](CCSC)NC(C)=O)CSSC[C@@H](C(=O)NCC(=O)N[C@@H](CO)C(=O)NCC(=O)N[C@@H](CO)C(=O)N[C@@H](CC(=O)O)C(=O)N[C@@H](Cc2ccc(O)cc2)C(=O)N[C@@H](CCCCN)C(=O)N[C@@H](CC(=O)O)C(=O)N[C@@H](CC(=O)O)C(=O)N[C@@H](CC(=O)O)C(=O)N[C@@H](CC(=O)O)C(=O)N[C@@H](CCCCN)C(N)=O)NC(=O)[C@H](CCCNC(=N)N)NC(=O)[C@H](CO)NC(=O)[C@H](CC(C)C)NC1=O` (Ac-MCFALLYKILSRCGSGSDYKDDDDK-NH2; disulfide 2-13), the Kd in experiment [1] (setting [4]), in experiment [2] and in experiment [3] was greater than 10 µM in each case.

As for `CSCC[C@H](NC(C)=O)C(=O)N[C@H]1CSSC[C@@H](C(=O)NCC(=O)N[C@@H](CO)C(=O)NCC(=O)N[C@@H](CO)C(=O)N[C@@H](CC(=O)O)C(=O)N[C@@H](Cc2ccc(O)cc2)C(=O)N[C@@H](CCCCN)C(=O)N[C@@H](CC(=O)O)C(=O)N[C@@H](CC(=O)O)C(=O)N[C@@H](CC(=O)O)C(=O)N[C@@H](CC(=O)O)C(=O)N[C@@H](CCCCN)C(N)=O)NC(=O)[C@H](C(C)C)NC(=O)[C@H](CCCCN)NC(=O)[C@H](Cc2ccccc2)NC(=O)[C@H](Cc2c[nH]c3ccccc23)NC(=O)[C@H](Cc2ccccc2)NC(=O)[C@H](CCC(=O)O)NC(=O)[C@H](Cc2c[nH]cn2)NC(=O)[C@H](CCC(N)=O)NC(=O)[C@H](CCCCN)NC(=O)[C@H](Cc2ccccc2)NC(=O)[C@H](Cc2c[nH]c3ccccc23)NC(=O)[C@H](Cc2c[nH]c3ccccc23)NC1=O` (Ac-MCWWFKQHEFWFKVCGSGSDYKDDDDK-NH2; disulfide 2-15), the Kd was 0.002 µM in experiment [1] (setting [5]), greater than 10 µM in experiment [2] and greater than 10 µM in experiment [3].

Take `CC[C@H](C)[C@@H]1NC(=O)[C@H](CC(N)=O)NC(=O)[C@H](CCCCN)NC(=O)[C@H](Cc2ccc(O)cc2)NC(=O)[C@@H](NC(=O)[C@H](CCSC)NC(C)=O)CSSC[C@@H](C(=O)NCC(=O)N[C@@H](CO)C(=O)NCC(=O)N[C@@H](CO)C(=O)N[C@@H](CC(=O)O)C(=O)N[C@@H](Cc2ccc(O)cc2)C(=O)N[C@@H](CCCCN)C(=O)N[C@@H](CC(=O)O)C(=O)N[C@@H](CC(=O)O)C(=O)N[C@@H](CC(=O)O)C(=O)N[C@@H](CC(=O)O)C(=O)N[C@@H](CCCCN)C(N)=O)NC(=O)[C@H](Cc2ccccc2)NC(=O)[C@H](C(C)C)NC(=O)[C@H](CC(C)C)NC(=O)[C@H](C(C)C)NC(=O)CNC(=O)[C@H](CC(N)=O)NC(=O)[C@H](CC(=O)O)NC1=O` (Ac-MCYKNIDNGVLVFCGSGSDYKDDDDK-NH2; disulfide 2-14): the values for the Kd in experiment [1] (setting [5]), in experiment [2] and in experiment [3] were 0.014 µM, greater than 10 µM and greater than 10 µM, respectively.

Turning to `CSCC[C@H](NC(C)=O)C(=O)N[C@H]1CSSC[C@@H](C(=O)NCC(=O)N[C@@H](CO)C(=O)NCC(=O)N[C@@H](CO)C(=O)N[C@@H](CC(=O)O)C(=O)N[C@@H](Cc2ccc(O)cc2)C(=O)N[C@@H](CCCCN)C(=O)N[C@@H](CC(=O)O)C(=O)N[C@@H](CC(=O)O)C(=O)N[C@@H](CC(=O)O)C(=O)N[C@@H](CC(=O)O)C(=O)N[C@@H](CCCCN)C(N)=O)NC(=O)[C@H](CCC(N)=O)NC(=O)[C@H](CCCCN)NC(=O)[C@H](Cc2ccc(O)cc2)NC(=O)[C@H](C(C)C)NC(=O)[C@H]([C@@H](C)O)NC(=O)[C@H](Cc2c[nH]c3ccccc23)NC(=O)[C@H](Cc2ccc(O)cc2)NC(=O)[C@H](CCCCN)NC(=O)[C@H](C(C)C)NC(=O)[C@H](Cc2c[nH]c3ccccc23)NC1=O` (Ac-MCWVKYWTVYKQCGSGSDYKDDDDK-NH2; disulfide 2-13), the values for the dissociation constant (Kd) in experiment [1] (setting [4]), in experiment [2] and in experiment [3] were 0.207 µM, greater than 10 µM and greater than 10 µM, respectively.

For `CSCC[C@H](NC(C)=O)C(=O)N[C@H]1CSSC[C@@H](C(=O)NCC(=O)N[C@@H](CO)C(=O)NCC(=O)N[C@@H](CO)C(=O)N[C@@H](CC(=O)O)C(=O)N[C@@H](Cc2ccc(O)cc2)C(=O)N[C@@H](CCCCN)C(=O)N[C@@H](CC(=O)O)C(=O)N[C@@H](CC(=O)O)C(=O)N[C@@H](CC(=O)O)C(=O)N[C@@H](CC(=O)O)C(=O)N[C@@H](CCCCN)C(N)=O)NC(=O)[C@H](Cc2c[nH]cn2)NC(=O)[C@H](Cc2c[nH]c3ccccc23)NC(=O)[C@H](CC(N)=O)NC(=O)[C@H](Cc2ccc(O)cc2)NC(=O)[C@H](Cc2c[nH]cn2)NC(=O)[C@H](Cc2c[nH]cn2)NC(=O)[C@H](CO)NC(=O)[C@H](Cc2ccc(O)cc2)NC(=O)[C@H](CCC(N)=O)NC(=O)[C@H](Cc2c[nH]c3ccccc23)NC(=O)[C@H](C(C)C)NC1=O` (Ac-MCVWQYSHHYNWHCGSGSDYKDDDDK-NH2; disulfide 2-14), the Kd in experiment [1] (setting [5]), in experiment [2] and in experiment [3] was greater than 10 µM in each case.

Take `CSCC[C@H](NC(C)=O)C(=O)N[C@H]1CSSC[C@@H](C(=O)NCC(=O)N[C@@H](CO)C(=O)NCC(=O)N[C@@H](CO)C(=O)N[C@@H](CC(=O)O)C(=O)N[C@@H](Cc2ccc(O)cc2)C(=O)N[C@@H](CCCCN)C(=O)N[C@@H](CC(=O)O)C(=O)N[C@@H](CC(=O)O)C(=O)N[C@@H](CC(=O)O)C(=O)N[C@@H](CC(=O)O)C(=O)N[C@@H](CCCCN)C(N)=O)NC(=O)[C@H](Cc2c[nH]c3ccccc23)NC(=O)[C@H](CC(C)C)NC(=O)[C@H](CC(C)C)NC(=O)[C@H](Cc2ccc(O)cc2)NC(=O)[C@H](Cc2ccc(O)cc2)NC(=O)[C@H](Cc2ccccc2)NC(=O)[C@H](CC(C)C)NC(=O)[C@H](Cc2c[nH]cn2)NC(=O)[C@H](CCC(=O)O)NC(=O)[C@H](CCCCN)NC(=O)[C@H](C)NC1=O` (Ac-MCAKEHLFYYLLWCGSGSDYKDDDDK-NH2; disulfide 2-14): the Kd in experiment [1] (setting [5]) is 0.041 µM; in experiment [2], greater than 10 µM; in experiment [3], greater than 10 µM.

As for `CSCC[C@H](NC(C)=O)C(=O)N[C@H]1CSSC[C@@H](C(=O)NCC(=O)N[C@@H](CO)C(=O)NCC(=O)N[C@@H](CO)C(=O)N[C@@H](CC(=O)O)C(=O)N[C@@H](Cc2ccc(O)cc2)C(=O)N[C@@H](CCCCN)C(=O)N[C@@H](CC(=O)O)C(=O)N[C@@H](CC(=O)O)C(=O)N[C@@H](CC(=O)O)C(=O)N[C@@H](CC(=O)O)C(=O)N[C@@H](CCCCN)C(N)=O)NC(=O)[C@H](CO)NC(=O)[C@H](Cc2c[nH]cn2)NC(=O)[C@H](Cc2ccccc2)NC(=O)[C@H](CC(C)C)NC(=O)[C@H](CCCCN)NC(=O)[C@H](Cc2ccc(O)cc2)NC(=O)[C@H](Cc2ccc(O)cc2)NC(=O)[C@H](CC(C)C)NC(=O)[C@H](CC(C)C)NC(=O)[C@H](Cc2c[nH]cn2)NC1=O` (Ac-MCHLLYYKLFHSCGSGSDYKDDDDK-NH2; disulfide 2-13), the dissociation constant Kd is 0.114 µM in experiment [1] (setting [5]), greater than 10 µM in experiment [2] and 0.063 µM in experiment [3].

For the compound `CC[C@H](C)[C@@H]1NC(=O)[C@H](CC(C)C)NC(=O)[C@H](Cc2c[nH]c3ccccc23)NC(=O)[C@H](CCCCN)NC(=O)[C@@H]2CCCN2C(=O)[C@@H](NC(=O)[C@H](CCSC)NC(C)=O)CSSC[C@@H](C(=O)NCC(=O)N[C@@H](CO)C(=O)NCC(=O)N[C@@H](CO)C(=O)N[C@@H](CC(=O)O)C(=O)N[C@@H](Cc2ccc(O)cc2)C(=O)N[C@@H](CCCCN)C(=O)N[C@@H](CC(=O)O)C(=O)N[C@@H](CC(=O)O)C(=O)N[C@@H](CC(=O)O)C(=O)N[C@@H](CC(=O)O)C(=O)N[C@@H](CCCCN)C(N)=O)NC(=O)[C@H](CC(N)=O)NC(=O)[C@H](CC(C)C)NC(=O)[C@H](CC(C)C)NC(=O)[C@H](C(C)C)NC(=O)[C@H](CCCCN)NC1=O` (Ac-MCPKWLIKVLLNCGSGSDYKDDDDK-NH2; disulfide 2-13), the values for the Kd in experiment [1] (setting [4]), in experiment [2] and in experiment [3] were 4.19 µM, greater than 10 µM and greater than 10 µM, respectively.
